These results are taken from US20070259841A1, “Combinations for the treatment of rheumatoid arthritis” (CombinatoRx, Incorporated, priority 2002, published 2007).

One series concerns TNF-α secretion. Nature of the series: TNF-α ELISA: TNF-alpha suppression in PMA/ionomycin-induced white blood cells. The following applies: for TNF-α inhibition achievable by steroid alone: even at very high concentrations.
The conditions of series [1]: 200 mg/day orally; cited from earlier work.

For the molecule `Clc1ccc(COC(Cn2ccnc2)c2ccc(Cl)cc2Cl)cc1` (stereo not shown) [Econazole, econazole], the “TNF-alpha Suppression” value in the series with TNF-α secretion (Dexamethasone 0.0 nM, Econazole 0.035 μM) worked out at 13.30%; with TNF-α secretion (Dexamethasone 0.0 nM, Econazole 0.070 μM) it was 20.05%; in the series on TNF-α secretion (Dexamethasone 0.0 nM, Econazole 0.141 μM), 14.11%; with TNF-α secretion (Dexamethasone 0.0 nM, Econazole 0.281 μM), 16.99%; in the series with TNF-α secretion (Dexamethasone 0.0 nM, Econazole 1.124 μM) it was 38.71%; with TNF-α secretion (Dexamethasone 0.0 nM, Econazole 2.249 μM), 43.90%. The “TNF-alpha Suppression” value was 53.07% in the series with TNF-α secretion (Dexamethasone 0.0 nM, Econazole 4.497 μM) and 70.06% in the series with TNF-α secretion (Dexamethasone 0.0 nM, Econazole 8.995 μM).

As to `Clc1ccccc1C(c1ccccc1)(c1ccccc1)n1ccnc1` [Clotrimazole, clotrimazole], the “TNF-alpha Suppression” value in the series with TNF-α secretion (Diflorasone 0.0 nM, Clotrimazole 0.008 μM) came to 4.92%; with TNF-α secretion (Diflorasone 0.0 nM, Clotrimazole 0.014 μM), 5.86%; in the series on TNF-α secretion (Diflorasone 0.0 nM, Clotrimazole 0.031 μM) it was 12.47%; in the series with TNF-α secretion (Diflorasone 0.0 nM, Clotrimazole 0.063 μM), 11.43%; in the series on TNF-α secretion (Diflorasone 0.0 nM, Clotrimazole 0.125 μM) it was 18.40%; in the series on TNF-α secretion (Diflorasone 0.0 nM, Clotrimazole 0.250 μM), 14.29%. For the same molecule, the “TNF-alpha Suppression” value with TNF-α secretion (Diflorasone 0.0 nM, Clotrimazole 0.500 μM) is recorded as 20.07%; in the series on TNF-α secretion (Diflorasone 0.0 nM, Clotrimazole 1.000 μM), 19.90%; in the series with TNF-α secretion (Diflorasone 0.0 nM, Clotrimazole 2.000 μM), 30.02%.

In the case of `CC(=O)N1CCN(c2ccc(OCC3COC(Cn4ccnc4)(c4ccc(Cl)cc4Cl)O3)cc2)CC1` (stereo not shown) [ketoconazole], in series [1], the serum concentration entry is reported as “about 3.2 micrograms”.

For the molecule `CC(=O)OCC(=O)[C@@]1(OC(C)=O)[C@@H](C)C[C@H]2[C@@H]3C[C@H](F)C4=CC(=O)C=C[C@]4(C)[C@@]3(F)[C@@H](O)C[C@@]21C` [Diflorasone, diflorasone], the “TNF-alpha Suppression” value was found to be 9.84% with TNF-α secretion (Diflorasone 0.5 nM, Clotrimazole 0.000 μM); 16.12% in the series with TNF-α secretion (Diflorasone 0.9 nM, Clotrimazole 0.000 μM); 21.93% in the series on TNF-α secretion (Diflorasone 1.9 nM, Clotrimazole 0.000 μM); 29.01% with TNF-α secretion (Diflorasone 3.8 nM, Clotrimazole 0.000 μM); 36.86% in the series on TNF-α secretion (Diflorasone 7.5 nM, Clotrimazole 0.000 μM); 41.37% in the series on TNF-α secretion (Diflorasone 15.0 nM, Clotrimazole 0.000 μM). The “TNF-alpha Suppression” value in the series on TNF-α secretion (Diflorasone 30.0 nM, Clotrimazole 0.000 μM) came out at 49.96%; in the series on TNF-α secretion (Diflorasone 60.0 nM, Clotrimazole 0.000 μM) it was 48.95%; in the series with TNF-α secretion (Diflorasone 120.0 nM, Clotrimazole 0.000 μM) it was 47.05%. Moreover, the “TNF-α inhibition achievable by steroid alone” value with TNF-α secretion (diflorasone alone) is 47%. The “suppression of TNF-α secretion” value with TNF-α secretion (single agent concentration of 3.8 nM, P/I stimulated PBMCs) was determined as 29%.

On to `C[C@@H]1C[C@H]2[C@@H]3CCC4=CC(=O)C=C[C@]4(C)[C@@]3(F)[C@@H](O)C[C@]2(C)[C@@]1(O)C(=O)CO` [Dexamethasone, dexamethasone], for which the “TNF-alpha Suppression” value in the series on TNF-α secretion (Dexamethasone 1.0 nM, Econazole 0.000 μM) is reported as 23.96%; in the series on TNF-α secretion (Dexamethasone 2.0 nM, Econazole 0.000 μM) it was 33.10%; with TNF-α secretion (Dexamethasone 4.0 nM, Econazole 0.000 μM), 36.87%; in the series with TNF-α secretion (Dexamethasone 8.0 nM, Econazole 0.000 μM) it was 40.33%; with TNF-α secretion (Dexamethasone 16.0 nM, Econazole 0.000 μM) it was 44.12%; in the series on TNF-α secretion (Dexamethasone 32.0 nM, Econazole 0.000 μM), 51.26%. Also, the “TNF-alpha Suppression” value with TNF-α secretion (Dexamethasone 64.0 nM, Econazole 0.000 μM) is 54.35%; in the series on TNF-α secretion (Dexamethasone 127.0 nM, Econazole 0.000 μM), 52.97%; in the series with TNF-α secretion (Dexamethasone 255.0 nM, Econazole 0.000 μM), 59.93%. For the same molecule, the “TNF-α inhibition achievable by steroid alone” value with TNF-α secretion (dexamethasone alone) is 60%. The “suppression of TNF-α secretion” value in the series on TNF-α secretion (single agent concentration of 4 nM, PMA and ionomycin stimulated PBMCs) is recorded as 40%.
